Results on 16 molecules are retold here after patent US11339165B2, “Pyrazolopyrimidines having activity against the respiratory syncytial virus (RSV)” (priority 2017, dated 2022).

Some results are limits rather than exact numbers.

One may read the EC50 as the concentration needed to bring the measured effect to its halfway point. Usually melting point stands for the temperature, or range, at which the solid turns liquid. In general, CC50 refers to the concentration at which the toxic effect on the cells reaches its halfway point. Low readings indicate greater toxicity to the cells, high ones lower toxicity to the cells.

Series [1] relates to rgRSV224 virus. Kind of series: Antiviral activity: rgRSV224 (GFP) replication in HeLa cells. Type of series: cell-based, respiratory syncytial virus (RSV). Particulars: human respiratory syncytial virus, HeLa, 72 h, read-out: RSV HELA EC50 (μM), rgRSV224 virus (MOI=1), HeLa cells, GFP expression three days post-virus exposure.
Series [2] can be described thus: in vitro. Particulars: human, TOX HELA CC50 (μM).

Turning to `C[C@@H]1c2ccccc2CCN1C(=O)c1cc(C2CC2)n2nc(-c3ccc(N4C[C@H](C(N)=O)C[C@H]4C)cc3F)cc2n1` (single isomer, unassigned) [Compound 32, (3*R,5*R)-1-(4-{7-cyclopropyl-5-[(1R)-1-methyl-1,2,3,4-tetrahydroisoquinoline-2-carbonyl]pyrazolo[1,5-a]pyrimidin-2-yl}-3-fluorophenyl)-5-methylpyrrolidine-3-carboxamide], the melting point was 297.57 °C. The EC50 in series [1] is 0.06 µM. This molecule returned a CC50 at 3 days in series [2] of 32.1 µM.
Consider `C[C@@H]1c2ccccc2CCN1C(=O)c1cc(C2CC2)n2nc(-c3ccc(N4CC[C@@H](OC(N)=O)C4)nc3F)cc2n1` [Compound 85, (3R)-1-(5-{7-Cyclopropyl-5-[(1R)-1-methyl-1,2,3,4-tetrahydroisoquinoline-2-carbonyl]-pyrazolo[1,5-a]pyrimidin-2-yl}-6-fluoropyridin-2-yl)pyrrolidin-3-yl carbamate], for which, in series [1], the EC50 is 0.152 µM. This molecule also showed a CC50 at 3 days in series [2] of over 100 µM.
For the molecule `COc1cc(N2CC[C@H](C(N)=O)C2)nc(F)c1-c1cc2nc(C(=O)N3CCc4ccccc4[C@H]3C)cc(C3CC3)n2n1` [Compound 86, (3S)-1-(5-{7-Cyclopropyl-5-[(1R)-1-methyl-1,2,3,4-tetrahydroisoquinoline-2-carbonyl]-pyrazolo[1,5-a]pyrimidin-2-yl}-6-fluoro-4-methoxypyridin-2-yl)pyrrolidine-3-carboxamide], the EC50 in series [1] was 0.161 µM. This molecule registered a CC50 at 3 days in series [2] of 49.5 µM.
Consider `C[C@@H]1c2ccccc2CCN1C(=O)c1cc(C2CC2)n2nc(-c3ncc(N4CC[C@H](C(N)=O)C4)nc3F)cc2n1` [Compound 88, (3S)-1-(5-{7-Cyclopropyl-5-[(1R)-1-methyl-1,2,3,4-tetrahydroisoquinoline-2-carbonyl]-pyrazolo[1,5-a]pyrimidin-2-yl}-6-fluoropyrazin-2-yl)pyrrolidine-3-carboxamide], for which the EC50 in series [1] is 0.017 µM. This molecule yielded a CC50 at 3 days in series [2] of 47.6 µM.
As to `Cc1cc(N2CC[C@H](C(N)=O)C2)cc(F)c1-c1cc2nc(C(=O)N3CCc4ccccc4[C@H]3C)cc(C3CC3)n2n1` [Compound 89, (3S)-1-(4-{7-Cyclopropyl-5-[(1R)-1-methyl-1,2,3,4-tetrahydroisoquinoline-2-carbonyl]pyrazolo[1,5-a]pyrimidin-2-yl}-3-fluoro-5-methylphenyl)pyrrolidine-3-carboxamide], the EC50 in series [1] was 0.165 µM. The same molecule had a CC50 at 3 days in series [2] of 33.4 µM.
`C[C@@H]1c2ccccc2CCN1C(=O)c1cc(-c2cncc(F)c2)n2nc(-c3ccc(N4CC[C@H](C(N)=O)C4)cc3F)cc2n1` [Compound 90, (3S)-1-{3-Fluoro-4-[7-(5-fluoropyridin-3-yl)-5-[(1R)-1-methyl-1,2,3,4-tetrahydro-isoquinoline-2-carbonyl]pyrazolo[1,5-a]pyrimidin-2-yl]phenyl}pyrrolidine-3-carboxamide] registered a melting point of 269.08 °C. Also, the EC50 in series [1] is 0.046 µM.
Consider `C[C@@H]1c2ccccc2CCN1C(=O)c1cc(C2CC2)n2nc(-c3ccc(N4CC(CC(N)=O)C4)nc3F)cc2n1` [Compound 92, 2-[1-(5-{7-Cyclopropyl-5-[(1R)-1-methyl-1,2,3,4-tetrahydroisoquinoline-2-carbonyl]-pyrazolo[1,5-a]pyrimidin-2-yl}-6-fluoropyridin-2-yl)azetidin-3-yl]acetamide], for which the EC50 in series [1] was 0.071 µM. In series [2], this molecule returned a CC50 at 3 days of 41.5 µM.
`C[C@@H]1c2ccccc2CCN1C(=O)c1cc(C2CC2)n2nc(-c3ccc(N4CC[C@H](N)C4)cc3F)cc2n1` [Compound 93, (2-(4-((S)-3-aminopyrrolidin-1-yl)-2-fluorophenyl)-7-cyclopropylpyrazolo[1,5-a]pyrimidin-5-yl)((R)-1-methyl-3,4-dihydroisoquinolin-2(1H)-yl)methanone]: the EC50 in series [1] stood at 0.039 µM. This molecule also yielded a CC50 at 3 days in series [2] of 13.4 µM.
The like results for `C[C@@H]1c2ccccc2CCN1C(=O)c1cc(C2CC2)n2nc(-c3ccc(N4CC[C@H](NCC(F)(F)F)C4)cc3F)cc2n1` [Compound 94, (7-cyclopropyl-2-(2-fluoro-4-((S)-3-((2,2,2-trifluoroethyl)amino)pyrrolidin-1-yl)phenyl)pyrazolo[1,5-a]pyrimidin-5-yl)((R)-1-methyl-3,4-dihydroisoquinolin-2(1H)-yl)methanone] were, in that order, 0.19 µM and over 100 µM.
The like results for `C[C@@H]1c2ccccc2CCN1C(=O)c1cc(C2CC2)n2nc(-c3ccc(N4C[C@@H](O)[C@@H](O)C4)cc3F)cc2n1` [Compound 95, (7-cyclopropyl-2-(4-((3R,4S)-3,4-dihydroxypyrrolidin-1-yl)-2-fluorophenyl)pyrazolo[1,5-a]pyrimidin-5-yl)((R)-1-methyl-3,4-dihydroisoquinolin-2(1H)-yl)methanone] were, in that order, 0.018 µM and 31.1 µM.
The like results for `C[C@@H]1c2ccccc2CCN1C(=O)c1cc(C2CC2)n2nc(-c3ccc(N4C[C@H](O)C(F)(F)C4)cc3F)cc2n1` [Compound 97, (7-cyclopropyl-2-(4-((S)-3,3-difluoro-4-hydroxypyrrolidin-1-yl)-2-fluorophenyl)pyrazolo[1,5-a]pyrimidin-5-yl)((R)-1-methyl-3,4-dihydroisoquinolin-2(1H)-yl)methanone] were, in that order, 0.053 µM and 26.1 µM.
On to `C[C@@H]1c2ccccc2CCN1C(=O)c1cc(C2CC2)n2nc(-c3ccc(N4C[C@H](O)[C@H](O)[C@H]4CO)cc3F)cc2n1` [Compound 98], for which the EC50 in series [1] is 0.039 µM. Further, it took 47.6 µM to reach half-maximal cytotoxicity in series [2] (CC50 at 3 days).
The like results for `C[C@@H]1c2ccccc2CCN1C(=O)c1cc(C2CC2)n2nc(-c3ccc(N4C[C@@H](O)[C@H](O)C4)cc3F)cc2n1` [Compound 100, (7-cyclopropyl-2-(4-((3R,4R)-3,4-dihydroxypyrrolidin-1-yl)-2-fluorophenyl)pyrazolo[1,5-a]pyrimidin-5-yl)((R)-1-methyl-3,4-dihydroisoquinolin-2(1H)-yl)methanone] were, in that order, 0.011 µM and 23.8 µM.
Taken in the same sequence, the figures for `C[C@@H]1c2ccccc2CCN1C(=O)c1cc(C2CC2)n2nc(-c3ccc(N4CC[C@H](C(N)=S)C4)cc3F)cc2n1` [Compound 101, (S)-1-(4-(7-cyclopropyl-5-((R)-1-methyl-1,2,3,4-tetrahydroisoquinoline-2-carbonyl)pyrazolo[1,5-a]pyrimidin-2-yl)-3-fluorophenyl)pyrrolidine-3-carbothioamide] were 0.058 µM and 45.4 µM.
The like results for `C[C@@H]1c2ccccc2CCN1C(=O)c1cc(C2CC2)n2nc(-c3c(O)cc(N4CC[C@H](C(N)=O)C4)cc3F)cc2n1` [Compound 105, (S)-1-(4-(7-cyclopropyl-5-((R)-1-methyl-1,2,3,4-tetrahydroisoquinoline-2-carbonyl)pyrazolo[1,5-a]pyrimidin-2-yl)-3-fluoro-5-hydroxyphenyl)pyrrolidine-3-carboxamide] were, in that order, 0.025 µM and 83.6 µM.
Take `C[C@@H]1c2ccccc2CCN1C(=O)c1cc(C2CC2)n2nc(-c3c(F)cc(N4CC[C@H](C(N)=O)C4)cc3OCCO)cc2n1` [Compound 106, (S)-1-(4-(7-cyclopropyl-5-((R)-1-methyl-1,2,3,4-tetrahydroisoquinoline-2-carbonyl)pyrazolo[1,5-a]pyrimidin-2-yl)-3-fluoro-5-(2-hydroxyethoxy)phenyl)pyrrolidine-3-carboxamide]: in series [1], the EC50 worked out at 0.089 µM. Besides, the CC50 at 3 days in series [2] amounted to 21 µM.
